Reference: publication PMC3590142 (PLoS ONE, 2013)

T1: RFT-1 (rft-1, Y47D7A.16) (Caenorhabditis elegans, UniProt Q3LFN0)
T1 construct: full-length 1,284 nt cDNA with corrected 3' end (differs from the older gene model) in pCI-neo; untagged; transient expression in human ARPE-19 cells; 11 predicted TM domains
T1 sequence (Q3LFN0 1-427): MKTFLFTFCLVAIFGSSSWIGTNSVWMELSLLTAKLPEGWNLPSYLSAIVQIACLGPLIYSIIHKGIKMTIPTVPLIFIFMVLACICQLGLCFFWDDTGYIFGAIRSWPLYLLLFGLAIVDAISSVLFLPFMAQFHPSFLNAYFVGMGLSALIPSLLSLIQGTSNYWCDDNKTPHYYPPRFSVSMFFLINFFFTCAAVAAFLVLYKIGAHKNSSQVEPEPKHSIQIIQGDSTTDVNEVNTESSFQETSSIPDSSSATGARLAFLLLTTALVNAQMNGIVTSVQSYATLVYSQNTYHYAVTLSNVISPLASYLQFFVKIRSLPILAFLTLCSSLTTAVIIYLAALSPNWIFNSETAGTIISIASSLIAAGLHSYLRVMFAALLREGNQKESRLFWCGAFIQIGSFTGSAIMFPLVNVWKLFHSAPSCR

T2: RFT-2 (rft-2, Y47D7A.14) (Caenorhabditis elegans, UniProt G4SDH4)
T2 construct: full-length cDNA in pCI-neo; untagged; transient expression in human ARPE-19 cells
T2 sequence (G4SDH4 1-476): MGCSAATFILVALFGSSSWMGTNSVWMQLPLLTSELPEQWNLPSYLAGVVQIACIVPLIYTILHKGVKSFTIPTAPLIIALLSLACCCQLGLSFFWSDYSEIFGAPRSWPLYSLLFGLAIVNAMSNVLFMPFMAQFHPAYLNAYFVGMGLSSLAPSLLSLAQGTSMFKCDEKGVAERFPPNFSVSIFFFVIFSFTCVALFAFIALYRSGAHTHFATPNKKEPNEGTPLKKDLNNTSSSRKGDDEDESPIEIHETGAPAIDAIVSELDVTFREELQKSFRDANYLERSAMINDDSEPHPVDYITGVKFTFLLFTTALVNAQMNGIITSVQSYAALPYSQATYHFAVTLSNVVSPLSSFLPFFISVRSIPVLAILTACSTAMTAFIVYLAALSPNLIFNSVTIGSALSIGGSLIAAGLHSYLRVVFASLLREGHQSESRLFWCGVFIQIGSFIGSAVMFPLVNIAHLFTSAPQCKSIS

B1: RFT-1 (rft-1, Y47D7A.16) (Caenorhabditis elegans) (protein)
chain: MKTFLFTFCLVAIFGSSSWIGTNSVWMELSLLTAKLPEGWNLPSYLSAIVQIACLGPLIYSIIHKGIKMTIPTVPLIFIFMVLACICQLGLCFFWDDTGYIFGAIRSWPLYLLLFGLAIVDAISSVLFLPFMAQFHPSFLNAYFVGMGLSALIPSLLSLIQGTSNYWCDDNKTPHYYPPRFSVSMFFLINFFFTCAAVAAFLVLYKIGAHKNSSQVEPEPKHSIQIIQGDSTTDVNEVNTESSFQETSSIPDSSSATGARLAFLLLTTALVNAQMNGIVTSVQSYATLVYSQNTYHYAVTLSNVISPLASYLQFFVKIRSLPILAFLTLCSSLTTAVIIYLAALSPNWIFNSETAGTIISIASSLIAAGLHSYLRVMFAALLREGNQKESRLFWCGAFIQIGSFTGSAIMFPLVNVWKLFHSAPSCR

Experiments:
[1] = target: T1, RFT-1 (rft-1, Y47D7A.16); experiment: inhibition of [3H]riboflavin uptake, transfected ARPE-19 cells, empty-vector uptake subtracted; type: cell-based; settings: competition with [3H]riboflavin; 37°C, 5 min, Krebs-Ringer buffer
[2] = target: T2, RFT-2 (rft-2, Y47D7A.14); experiment: [3H]riboflavin uptake, transfected ARPE-19 cells, empty-vector uptake subtracted; settings: 14 nM [3H]riboflavin, pH 5.5, 37°C, 5 min, Krebs-Ringer buffer; labelled compound
[3] = substrate: Cc1cc2nc3c(=O)[nH]c(=O)nc-3n(C[C@H](O)[C@H](O)[C@H](O)CO)c2cc1C; experiment: cells, lysate or membranes; settings: 0.01–10 µM riboflavin, 37°C, 5 min, Krebs-Ringer buffer, labelled compound

Molecule | inhibition of [3H]riboflavin uptake, transfected ARPE-19 cells, empty-vector upt [1] | other results
Cc1cc2nc3[nH]c(=O)[nH]c(=O)c3nc2cc1C [lumichrome] | structural analogues lumichrome and lumiflavin significantly inhibited [^3H] riboflavin uptake | 
Cc1cc2nc3c(=O)[nH]c(=O)nc-3n(C)c2cc1C [lumiflavin] | structural analogues lumichrome and lumiflavin significantly inhibited [^3H] riboflavin uptake | 
Cc1cc2nc3c(=O)[nH]c(=O)nc-3n(C[C@H](O)[C@H](O)[C@H](O)CO)c2cc1C [riboflavin] |  | [3H]riboflavin uptake, transfected ARPE-19 cells, empty-vector uptake subtracted [2]: rft-2 transfected cells also had significantly higher riboflavin uptake compared to controls
B1 |  | Km [3]: 1.4 ± 0.5 µM
